In patent US11608341B2, “Substituted tetrahydropyrazolo[3,4-d]pyrimidines and tetrahydropyrazolo[4,3-d]pyrimidines as C5A receptor modulators” (Idorsia Pharmaceuticals Ltd., priority 2018, dated 2023):
One block for each compound: values may come before it.

Biological target: T1, C5AR1 (Homo sapiens, UniProt P21730)
T1 construct: host or cells: CHO-K1
T1 sequence (P21730 1-350): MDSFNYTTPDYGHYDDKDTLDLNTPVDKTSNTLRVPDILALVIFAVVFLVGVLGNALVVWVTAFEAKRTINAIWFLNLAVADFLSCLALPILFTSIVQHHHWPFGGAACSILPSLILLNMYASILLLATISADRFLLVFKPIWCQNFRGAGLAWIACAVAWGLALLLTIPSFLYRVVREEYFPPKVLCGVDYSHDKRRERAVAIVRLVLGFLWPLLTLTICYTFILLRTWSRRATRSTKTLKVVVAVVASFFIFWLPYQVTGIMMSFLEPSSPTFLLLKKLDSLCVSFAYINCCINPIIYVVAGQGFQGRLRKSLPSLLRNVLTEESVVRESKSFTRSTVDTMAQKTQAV
Experiment: In vitro assay: antagonism of C5a-induced beta-arrestin recruitment (PathHunter) in CHO-K1 C5AR1 beta-arrestin cell line
Type: cell-based
Details: antagonistic activity, 1-10 nM C5a agonist, geometric mean where several measurements, read-out: C5aR IC50
Procedure: 5 μl Antagonist at 6-fold end concentration or DMSO control is added to assay medium and subsequently 5 μl 1-10 nM C5a agonist at 6 fold end concentration. Cells are centrifuged for 1 min at 1000 rpm and incubated for 1.5 hour in at 37° C. Plates are equilibrated at room temperature for several minutes before adding 12 μl/well Detection Reagent (PathHunter Detection Kit, DiscoverX, Cat #93-0001). Plates are centrifuged for 1 min at 1000 rpm and incubated for 45 minutes at RT before being measured on a Fluostar Optima, BMG Labtech. IC50 values are calculated from a serial dilution range of antagonist using inhouse software and given in nmol/l.
The calculated IC50 values may fluctuate depending on the daily cellular assay performance. Fluctuations of this kind are known to those skilled in the art. Average IC50 values from several measurements are given as geometric mean values.

IC50: 21 nM
Compound: COc1nccc(C)c1N1CCC(N2C(=O)N(Cc3ccccc3C3CC3)c3nn(C4CC4)cc3C2C)CC1 (single isomer, unassigned) [Example 380]

IC50: 1420 nM
Compound: CC1c2nn(C3CC3)cc2N(Cc2ccccc2C(F)(F)F)C(=O)N1C1CCN(c2c(F)cccc2C(F)F)CC1 (single isomer, unassigned) [Example 330]

IC50: 18 nM
Compound: CC1c2nn(C3CC3)cc2N(Cc2ccccc2C(F)(F)F)C(=O)N1C1CCN(c2c(F)cccc2C(F)F)CC1 (single isomer, unassigned) [Example 329]

IC50: 362 nM
Compound: CC1c2cn(C)nc2N(Cc2ccccc2C(F)(F)F)C(=O)N1C1CCN(c2c(F)cccc2C(F)F)CC1 (single isomer, unassigned) [Example 315]

IC50: 33 nM
Compound: COc1nccc(C)c1N1CCC(N2Cc3cn(C)nc3N(C(C)c3ccccc3C(F)(F)F)C2=O)CC1 (single isomer, unassigned) [Example 286]

IC50: 9 nM
Compound: CCOc1ccccc1CN1C(=O)N(C2CCN(c3c(C)cccc3F)CC2)Cc2cn(C)nc21 [Example 252]

IC50: 204 nM
Compound: COc1nccc(C(F)F)c1N1CCC(N2C(=O)N(Cc3ccccc3C3CC3)c3nn(C4CC4)cc3C2C)CC1 (single isomer, unassigned) [Example 383]

IC50: 16 nM
Compound: Cc1cccc(F)c1N1CCC(N2C(=O)N(Cc3ccccc3C(F)(F)F)c3cn(CC(C)(F)F)nc3C2C)CC1 (single isomer, unassigned) [Example 253]

IC50: 6 nM
Compound: COc1nccc(C)c1N1CCC(N2C(=O)N(Cc3ccccc3C(F)(F)F)c3nn(C)cc3C2C)CC1 (single isomer, unassigned) [Example 331]

IC50: 10 nM
Compound: COCn1cc2c(n1)N(Cc1ccccc1C(F)(F)F)C(=O)N(C1CCN(c3c(C)ccnc3OC)CC1)C2 [Example 227]

IC50: 1010 nM
Compound: CC1c2c[nH]nc2N(Cc2ccccc2C2CC2)C(=O)N1C1CCN(c2c(F)cccc2Cl)CC1 (single isomer, unassigned) [Example 373]

IC50: 22 nM
Compound: Cn1cc2c(n1)N(Cc1ccccc1C1CC1)C(=O)N(C1CCN(c3c(F)cccc3C(F)F)CC1)C2 [Example 308]

IC50: 28 nM
Compound: Cc1cccc(F)c1N1CCC(N2C(=O)N(Cc3ccccc3C3CC3)c3cn(C4CC4)nc3C2C)CC1 (single isomer, unassigned) [Example 279]

IC50: 196 nM
Compound: CC1c2cn(C)nc2N(Cc2ccccc2C2CC2)C(=O)N1C1CCN(c2c(F)cccc2Cl)CC1 (single isomer, unassigned) [Example 321]

IC50: 28 nM
Compound: Cn1cc2c(n1)N(Cc1ccccc1C(F)(F)F)C(=O)N(C1CCN(c3c(F)cccc3C(F)(F)F)CC1)C2 [Example 243]

IC50: 8 nM
Compound: COc1nccc(C)c1N1CCC(N2C(=O)N(Cc3ccccc3C(F)(F)F)c3nn(C4CC4)cc3C2C)CC1 (single isomer, unassigned) [Example 344]

IC50: 16 nM
Compound: Cc1cccc(F)c1N1CCC(N2C(=O)N(Cc3ccccc3C(F)(F)F)c3nn(CC(C)(F)F)cc3C2C)CC1 (single isomer, unassigned) [Example 305]

IC50: 12 nM
Compound: CC1c2cn(C3CC3)nc2N(Cc2ccccc2C(F)(F)F)C(=O)N1C1CCN(c2c(F)cccc2Cl)CC1 (single isomer, unassigned) [Example 335]

IC50: 16 nM
Compound: Cc1cccc(Cl)c1N1CCC(N2Cc3cn(C)nc3N(Cc3ccccc3C(F)(F)F)C2=O)CC1 [Example 245]

IC50: 572 nM
Compound: COc1nccc(C)c1N1CCC(N2C(=O)N(Cc3ncccc3C(F)(F)F)c3nn(C)cc3C2C)CC1 (single isomer, unassigned) [Example 357]

IC50: 80 nM
Compound: Cc1cccc(F)c1N1CCC(N2C(=O)N(Cc3ccccc3C(F)(F)F)c3cnn(COCC[Si](C)(C)C)c3C2C)CC1 (stereo not drawn) [Example 237]

IC50: 54 nM
Compound: Cn1cc2c(n1)CN(C1CCN(c3c(F)cccc3OC(F)(F)F)CC1)C(=O)N2Cc1ccccc1C(F)(F)F [Example 270]

IC50: 34 nM
Compound: Cc1cccc(F)c1N1CCCC(N2Cc3cn(C)nc3N(Cc3ccccc3C(F)(F)F)C2=O)CC1 (single isomer, unassigned) [Example 225]

IC50: 184 nM
Compound: COc1nccc(C)c1N1CCC(N2C(=O)N(Cc3ccccc3C(F)(F)F)c3nn(C)cc3C2C)CC1 (single isomer, unassigned) [Example 332]

IC50: 21 nM
Compound: Cc1cccc(F)c1N1CCC(N2Cc3cn(C)nc3N(C(C)c3ccccc3C(F)(F)F)C2=O)CC1 (single isomer, unassigned) [Example 246]

More lines, now with the values behind:

Compound: COC(=O)Cn1ncc2c1CN(C1CCN(c3c(C)cccc3F)CC1)C(=O)N2Cc1ccccc1C(F)(F)F [Example 19]
IC50: 637 nM

Compound: COc1nccc(C)c1N1CCC(N2Cc3cn(C)nc3N(Cc3ncccc3C(F)(F)F)C2=O)CC1 [Example 138]
IC50: 11 nM

Compound: Cc1cccc(F)c1N1CCC(N2Cc3c(cnn3C3CC3)N(Cc3ncccc3C(F)(F)F)C2=O)CC1 [Example 215]
IC50: 146 nM

Compound: C=C(C)n1cc2c(n1)CN(C1CCN(c3c(C)cccc3F)CC1)C(=O)N2Cc1ccccc1C(F)(F)F [Example 192]
IC50: 4 nM

Compound: Cc1cccc(F)c1N1CCC(N2Cc3c(cnn3CC(C)(C)F)N(Cc3ccccc3C(F)(F)F)C2=O)CC1 [Example 177]
IC50: 48 nM

Compound: Cc1cccc(F)c1N1CCC(N2Cc3cn(CC(C)O)nc3N(Cc3ccccc3C(F)(F)F)C2=O)CC1 (stereo not drawn) [Example 33]
IC50: 12 nM

Compound: Cc1cccc(F)c1N1CCC(N2Cc3cn(CC4(O)COC4)nc3N(Cc3ccccc3C(F)(F)F)C2=O)CC1 [Example 171]
IC50: 17 nM

Compound: COc1nccc(C)c1N1CCC(N2Cc3cn(CC4(F)CC4)nc3N(Cc3ccccc3C(F)(F)F)C2=O)CC1 [Example 201]
IC50: 6 nM

Compound: COc1nccc(C)c1N1CCC(N2Cc3nn(C)nc3N(Cc3ncccc3C(F)(F)F)C2=O)CC1 [Example 146]
IC50: 32 nM

Compound: COC1CN(CCn2cc3c(n2)N(Cc2ccccc2C(F)(F)F)C(=O)N(C2CCN(c4c(C)cccc4F)CC2)C3)C1 [Example 34]
IC50: 22 nM

Compound: Cc1ccc(C(F)(F)F)c(CN2C(=O)N(C3CCN(c4c(C)cccc4F)CC3)Cc3cn(C)nc32)n1 [Example 37]
IC50: 53 nM

Compound: CCN1CC(n2cc3c(n2)N(Cc2ccccc2C(F)(F)F)C(=O)N(C2CCN(c4c(C)cccc4F)CC2)C3)C1 [Example 103]
IC50: 351 nM

Compound: Cc1cccc(F)c1N1CCC(N2Cc3cn(CC(N)=O)nc3N(Cc3ccccc3C(F)(F)F)C2=O)CC1 [Example 29]
IC50: 103 nM

Compound: Cc1cccc(F)c1N1CCC(N2Cc3cn(C4CNC4=O)nc3N(Cc3ccccc3C(F)(F)F)C2=O)CC1 (stereo not drawn) [Example 157]
IC50: 17 nM

Compound: COC(=O)Cn1cc2c(n1)N(Cc1ccccc1C(F)(F)F)C(=O)N(C1CCN(c3c(C)cccc3F)CC1)C2 [Example 17]
IC50: 13 nM

Compound: C=C(C)Cn1cc2c(n1)N(Cc1ccccc1C(F)(F)F)C(=O)N(C1CCN(c3c(C)cccc3F)CC1)C2 [Example 154]
IC50: 26 nM

Compound: Cc1cccc(F)c1N1CCC(N2Cc3cn(C4CNC4)nc3N(Cc3ccccc3C(F)(F)F)C2=O)CC1 [Example 92]
IC50: 428 nM

Compound: Cc1cccc(F)c1N1CCC(N2Cc3cn(C4CN(C(=O)OC(C)C)C4)nc3N(Cc3ccccc3C(F)(F)F)C2=O)CC1 [Example 127]
IC50: 14 nM

Compound: COC(=O)N1CC(n2cc3c(n2)N(Cc2ccccc2C(F)(F)F)C(=O)N(C2CCN(c4c(C)cccc4F)CC2)C3)C1 [Example 117]
IC50: 33 nM

Compound: Cc1cccc(F)c1N1CCC(N2Cc3nn(CC4(F)CC4)cc3N(Cc3ncccc3C(F)(F)F)C2=O)CC1 [Example 208]
IC50: 3 nM

Compound: Cc1cccc(F)c1N1CCC(N2Cc3cn(C(C)C(N)=O)nc3N(Cc3ccccc3C(F)(F)F)C2=O)CC1 (stereo not drawn) [Example 75]
IC50: 171 nM

Compound: Cc1cccc(F)c1N1CCC(N2Cc3cn(C(C)(C)C(N)=O)nc3N(Cc3ccccc3C(F)(F)F)C2=O)CC1 [Example 84]
IC50: 74 nM

Compound: COc1nccc(C)c1N1CCC(N2Cc3cn(COCC[Si](C)(C)C)nc3N(Cc3ccccc3C(F)(F)F)C2=O)CC1 [Example 196]
IC50: 11 nM

Compound: CC(=O)NCCn1cc2c(n1)N(Cc1ccccc1C(F)(F)F)C(=O)N(C1CCN(c3c(C)cccc3F)CC1)C2 [Example 66]
IC50: 152 nM

Compound: Cc1cccc(F)c1N1CCC(N2Cc3cn(C4CN(CC(C)C)C4)nc3N(Cc3ccccc3C(F)(F)F)C2=O)CC1 [Example 104]
IC50: 146 nM

Compound: Cc1cccc(F)c1N1CCC(N2Cc3cn(CC(O)CO)nc3N(Cc3ccccc3C(F)(F)F)C2=O)CC1 (stereo not drawn) [Example 40]
IC50: 27 nM

Compound: Cn1cc2c(n1)N(Cc1ccccc1C(F)(F)F)C(=O)N(C1CCN(c3ncccc3F)CC1)C2 [Example 68]
IC50: 318 nM

Compound: COC(=O)C(Cn1cc2c(n1)N(Cc1ccccc1C(F)(F)F)C(=O)N(C1CCN(c3c(C)cccc3F)CC1)C2)N(C)C (stereo not drawn) [Example 53]
IC50: 46 nM

Compound: Cc1cccc(F)c1N1CCC(N2Cc3cn(CC(C)(F)F)nc3N(Cc3ncccc3C(F)(F)F)C2=O)CC1 [Example 194]
IC50: 5 nM

Compound: Cc1cccc(F)c1N1CCC(N2Cc3cn(CC(C)(C)N)nc3N(Cc3ccccc3C(F)(F)F)C2=O)CC1 [Example 118]
IC50: 578 nM

Compound: Cc1cccc(F)c1N1CCC(N2Cc3cn(C(=O)N(C)CC(C)C)nc3N(Cc3ccccc3C(F)(F)F)C2=O)CC1 [Example 150]
IC50: 767 nM

Compound: Cc1cccc(F)c1N1CCC(N2Cc3nn(CC(C)(F)F)cc3N(Cc3ccccc3C(F)(F)F)C2=O)CC1 [Example 198]
IC50: 13 nM
